From patent US8729081B2, “Compositions and methods for treating alcohol use disorders, pain and other diseases” (VM Discovery Inc., priority 2008, dated 2014)

Biological target: T1, PKCε (h) (Homo sapiens, UniProt Q02156)
T1 construct: host or cells: insect cells
T1 sequence (Q02156 1-737): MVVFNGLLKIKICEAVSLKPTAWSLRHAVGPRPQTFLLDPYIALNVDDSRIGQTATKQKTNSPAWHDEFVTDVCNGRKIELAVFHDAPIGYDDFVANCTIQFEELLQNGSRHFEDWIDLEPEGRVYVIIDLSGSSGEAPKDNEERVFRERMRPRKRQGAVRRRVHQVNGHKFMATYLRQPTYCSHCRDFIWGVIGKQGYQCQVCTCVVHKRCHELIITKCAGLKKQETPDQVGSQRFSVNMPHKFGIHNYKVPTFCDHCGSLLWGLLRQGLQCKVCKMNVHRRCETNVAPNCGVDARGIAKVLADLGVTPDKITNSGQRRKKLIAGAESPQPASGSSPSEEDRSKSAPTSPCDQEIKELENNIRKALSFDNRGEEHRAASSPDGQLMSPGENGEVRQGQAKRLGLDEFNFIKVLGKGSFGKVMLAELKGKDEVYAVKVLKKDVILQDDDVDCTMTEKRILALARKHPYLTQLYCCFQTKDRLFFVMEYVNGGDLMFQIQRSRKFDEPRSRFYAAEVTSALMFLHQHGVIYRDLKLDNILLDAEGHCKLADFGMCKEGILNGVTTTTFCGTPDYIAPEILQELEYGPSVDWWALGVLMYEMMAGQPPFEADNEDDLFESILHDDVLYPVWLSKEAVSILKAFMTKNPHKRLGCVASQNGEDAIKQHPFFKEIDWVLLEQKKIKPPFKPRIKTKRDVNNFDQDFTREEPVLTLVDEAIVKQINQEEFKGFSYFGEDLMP
Experiment: In vitro PKCε kinase assay (radiometric, [γ-33P-ATP], HotSpot)
Format: biochemical
Conditions: recombinant human PKCε, 10 μM ATP; read-out: IC50 in antagonizing the PKCε
Experimental: There are many in vitro commercially available and validated bioassays (Ma, H., et al, Expert Opin Drug Discov. 2008 June; 3(6): 607-621 and references therein) which can be used to characterize the activities of compounds of the present invention against PKCε protein kinase. Compounds can be tested against the activity of recombinant PKCε. In a final reaction volume of 25 μL, PKCε (h) (0.4 nM, Human recombinant protein expressed in insect cells. Mw=83.7 kDa) is incubated with kinase buffer (20 mM HEPES-HCl, pH 7.5, 10 mM MgCl2, 1 mM EGTA, 0.02% Brij35, 0.1 mM Na3VO4, 0.02 mg/ml BSA, 2 mM DTT, and 1% DMSO), 0.1 mg/mL phosphatidylserine, 10 μg/mL diacylglycerol, 20 μM S25-PKC peptide substrate (RFARKGSLRQKNV-OH, Mw=1561 Da), 10 mM MgAcetate and 10 μM [γ-33P-ATP] (specific activity approx. 500 cpm/pmol). The reaction is initiated by the addition of the MgATP mix. After incubation for 40 minutes at room temperature, the reaction is stopped by the addition of 5 μL of a 3% phosphoric acid solution. 10 μL of the reaction is then spotted onto a P30 filtermat and washed three times for 5 minutes in 75 mM phosphoric acid and once in methanol prior to drying and scintillation counting Control samples are incubated without inhibitor to measure maximal activity or with the general kinase inhibitor Staurosporine (5 μM) to measure complete inhibition. For each compound the % inhibition can be calculated by the formula, or by curve fits: % Inhibition=(Max activity−Activity with compound)/(Max activity−Activity with Control)*100. Compounds with inhibitory activity are assayed using at least 5 concentrations (1 nM-300 μM). Concentrations are adjusted to generate a complete dose-response curve. Each sample is assayed in duplicate and each experiment is repeated three times. Results are fitted by non-linear regression analysis to a sigmoidal dose-response curve with variable slope to calculate Hill slope, log IC50 and Imax values for each inhibitor, using the program Prism 5 (GraphPad Software, Inc., San Diego, Calif.).
Kinase profiling was performed using HotSpot technology (Reaction Biology Corp. 11 Malvern, Pa., USA). This technology is a radioisotope-based P81 filter-binding assay. Compound of the present invention were dissolved in pure DMSO to make a 10 mM stock, then diluted in pure DMSO to make a serial dilution based on the IC50 ranges. PKCε (h) (0.4 nM, human recombinant protein expressed in insect cells. Mw=83.7 kDa) and substrate (20 μM peptide substrate, [RFARKGSLRQKNV]) were diluted in the reaction buffer (20 mM HEPES-HCl, pH 7.5, 10 mM MgCl2, 1 mM EGTA, 0.02% Brij35, 0.1 mM Na3VO4, 0.02 mg/ml BSA, 2 mM DTT, and 1% DMSO), and then 5 nL of compound was delivered into PKCε (h) and substrate mixture by acoustic technology using Echo 550 (LabCyte Inc., Sunnyvale, Calif.). The reaction was initiated by the addition of [γ-33P-ATP] into the reaction mixture (final concentration was 10 μM) and stopped after at least 40 min incubation at room temperature. The unreacted free 33P-ATP was washed away before detection.
The intrinsic PKCε antagonist activity of a compound which may be used in the present invention may be determined by these assays. […] Such a result is indicative of the intrinsic activity of the compounds in use as antagonists of PKCε.

IC50 | Structure (SMILES)
0.01 to 1 µM | O=C(NCCCN1CCCCCC1)c1ccc(C=C2Sc3ccccc3N(Cc3ccccc3F)C2=O)cc1 (mixture of isomers) [Compound 485, N-[3-(azepan-1-yl)propyl]-4-{(Z/E)-[4-(2-fluorobenzyl)-3-oxo-3,4-dihydro-2H-1,4-benzothiazin-2-ylidene]methyl}benzamide]
0.01 to 1 µM | O=C(NCCCN1CCCC1)c1ccc(C=C2Oc3ccccc3N(Cc3ccccc3C(F)(F)F)C2=O)cc1 (mixture of isomers) [Compound 801, 4-[(Z/E)-{3-oxo-4-[2-(trifluoromethyl)benzyl]-3,4-dihydro-2H-1,4-benzoxazin-2-ylidene}methyl]-N-[3-(pyrrolidin-1-yl)propyl]benzamide]
0.01 to 1 µM | O=C(NCN1CCC2CCCCC2C1)c1ccc(/C=C2\Oc3ccccc3N(Cc3ccccc3F)C2=O)cc1 (mixture of isomers) [Compound 817, 4-{(Z/E)-[4-(2-fluorobenzyl)-3-oxo-3,4-dihydro-2H-1,4-benzoxazin-2-ylidene]methyl}-N-(octahydroisoquinolin-2(1H)-ylmethyl)benzamide]
0.01 to 1 µM | CC(=C1Oc2ccccc2N(Cc2ccc(F)cc2)C1=O)c1ccc(C(=O)NCCCN2CCCCCC2)cc1 (mixture of isomers) [Compound 821, N-[3-(azepan-1-yl)propyl]-4-{(1Z/1E)-1-[4-(4-fluorobenzyl)-3-oxo-3,4-dihydro-2H-1,4-benzoxazin-2-ylidene]ethyl}benzamide]
0.01 to 1 µM | O=C(NCCCc1ccncc1)c1ccc(C=C2Sc3ccccc3N(Cc3ccccc3F)C2=O)cc1 (mixture of isomers) [Compound 825, 4-{(Z/E)-[4-(2-fluorobenzyl)-3-oxo-3,4-dihydro-2H-1,4-benzothiazin-2-ylidene]methyl}-N-[3-(pyridin-4-yl)propyl]benzamide]
0.01 to 1 µM | CC(=C1Oc2ccccc2N(Cc2ccc(F)cc2)C1=O)c1ccc(C(=O)NCCCN2CCOCC2)cc1 (mixture of isomers) [Compound 829, N-4-{(1Z/1E)-1-[4-(4-fluorobenzyl)-3-oxo-3,4-dihydro-2H-1,4-benzoxazin-2-ylidene]ethyl}-N-[3-(morpholin-4-yl)propyl]benzamide]
0.01 to 1 µM | CN(CCCN1CCOCC1)C(=O)c1ccc(C=C2Oc3ccccc3N(Cc3ccccc3F)C2=O)cc1 (mixture of isomers) [Compound 841, 4-{(Z/E)-[4-(2-fluorobenzyl)-3-oxo-3,4-dihydro-2H-1,4-benzoxazin-2-ylidene]methyl}-N-methyl-N-[3-(morpholin-4-yl)propyl]benzamide]
0.01 to 1 µM | O=C(NCCCN1CCCC1)c1ccc(/C=C2\Oc3ccccc3N(Cc3ccccc3F)C2=O)cc1 [Compound 483, 4-{(Z/E)-[4-(2-fluorobenzyl)-3-oxo-3,4-dihydro-2H-1,4-benzoxazin-2-ylidene]methyl}-N-[3-(pyrrolidin-1-yl)propyl]benzamide hydrate]
0.01 to 1 µM | Cc1oc(-c2ccc(Cl)cc2)nc1CN1CCC(C(=O)NCCN2CCCC2)CC1 [Compound 597, 1-{[2-(4-chlorophenyl)-5-methyl-1,3-oxazol-4-yl]methyl}-N-(2-pyrrolidin-1-ylethyl)piperidine-4-carboxamide]
0.01 to 1 µM | C/C(=C1/Oc2ccccc2N(Cc2ccc(F)cc2F)C1=O)c1ccc(C(=O)NCCCN2CCOCC2)cc1 [Compound 837, 4-{(1Z/1E)-1-[4-(2,4-difluorobenzyl)-3-oxo-3,4-dihydro-2H-1,4-benzoxazin-2-ylidene]ethyl}-N-[3-(morpholin-4-yl)propyl]benzamide]
0.01 to 1 µM | Cc1oc(-c2ccc(Cl)cc2)nc1CN1CCC(C(=O)NCCCN2CCCCCC2)CC1 [Compound 901, N-[3-(azepan-1-yl)propyl]-1-{[2-(4-chlorophenyl)-5-methyl-1,3-oxazol-4-yl]methyl}piperidine-4-carboxamide]
0.01 to 1 µM | Cc1oc(-c2ccc(Cl)cc2)nc1CN1CCC(C(=O)NCCCN2CCC(Cc3ccccc3)CC2)CC1 [Compound 907, N-[3-(4-benzylpiperidin-1-yl)propyl]-1-{[2-(4-chlorophenyl)-5-methyl-1,3-oxazol-4-yl]methyl}piperidine-4-carboxamide]
0.01 to 1 µM | Cc1oc(-c2cccc(Cl)c2)nc1CN1CCC(C(=O)NCCCN2CCC(Cc3cccc(Cl)c3)CC2)CC1 [Compound 911, N-{3-[4-(3-chlorobenzyl)piperidin-1-yl]propyl}-1-{[2-(3-chlorophenyl)-5-methyl-1,3-oxazol-4-yl]methyl}piperidine-4-carboxamide]
0.01 to 1 µM | Cc1oc(-c2ccc(Cl)cc2)nc1CN1CCC(C(=O)N(C)CCCN2CCCCCC2)CC1 [Compound 929, N-[3-(azepan-1-yl)propyl]-1-{[2-(4-chlorophenyl)-5-methyl-1,3-oxazol-4-yl]methyl}-N-methylpiperidine-4-carboxamide]
0.01 to 1 µM | Cc1oc(-c2ccc(Cl)cc2)nc1CN1CCC(C(=O)NCCCN2CCOCC2)CC1 [Compound 935, 1-{[2-(4-chlorophenyl)-5-methyl-1,3-oxazol-4-yl]methyl}-N-[3-(morpholin-4-yl)propyl]piperidine-4-carboxamide]
0.01 to 1 µM | Cc1oc(-c2ccc3c(c2)OCO3)nc1CN1CCC(C(=O)NCCCN2CCCCCC2)CC1 [Compound 949, N-[3-(azepan-1-yl)propyl]-1-{[2-(1,3-benzodioxol-5-yl)-5-methyl-1,3-oxazol-4-yl]methyl}piperidine-4-carboxamide]

Test system: C57BL/6J mice
Experiment: Alcohol intake in Drink-in-Dark (DID) model
Format: in vivo
Conditions: 4-hr drinking in the dark (DID) protocol, compared with vehicle control, FIG. 2
Description: FIG. 2. […] The data are presented as mean±SEM. *p<0.05, ***p<0.001 as compared with the vehicle control.
Alcohol Intake in Drink-in-Dark (DID) model (Rhodes J S, et al, Physiol Behav. (2005) 84:53-63). Mice are acclimated in animal facility and housed three to four per cage in standard cages until 1 week prior to the start of an experiment when they are transferred to individual housing. Approximately 2 weeks prior to the start of an experiment, the mice are switched to a reverse light/dark schedule such that lights turned on at 2030 h and off at 0830 h. Food (Purina 5001™) is always provided ad libitum. Water is provided ad libitum except when ethanol is substituted for water for 4 h per day. The animals are divided into 4 groups and given intraperitoneal (i.p.) injections of vehicle, and a test article (TA) at 5, 20 and 50 mg/kg body weight, respectively, starting 3 h after lights off in the animal rooms. Then the water bottles are replaced with 10 ml graduated cylinders fitted with sipper tubes containing 20% (v/v) ethanol in tap water. The ethanol cylinders remain in place for 4 h. The fluid levels are checked every 30 minutes for 4 h. After the 4-h period, the ethanol cylinders are replaced with water bottles. […] Similarly, mice are administered with TA by oral gavage and ethanol or water intake is monitored for 4 h.

Structure (SMILES) | oral intake of alcohol (20% ethanol)
Cc1oc(-c2ccc(Cl)cc2)nc1CN1CCC(C(=O)NCCCN2CCCCCC2)CC1 [Compound 901, N-[3-(azepan-1-yl)propyl]-1-{[2-(4-chlorophenyl)-5-methyl-1,3-oxazol-4-yl]methyl}piperidine-4-carboxamide] | significantly reduced
